In paper PMC5748833, “Synthesis and Biological Evaluation of Novel Hybrid Molecules Containing Purine, Coumarin and Isoxazoline or Isoxazole Moieties” (The Open Medicinal Chemistry Journal, 2017):

How the values were obtained:
[1] = molecular target: T1, rat monoamine oxidase B (Rattus norvegicus, UniProt P19643); assay: Inhibition of MAO-B (spectrofluorimetric method); assay type: biochemical; details: for MAO-B (%) @ 10μΜ: 10 μM compound
T1 construct: from tissue
T1 sequence (P19643 1-520): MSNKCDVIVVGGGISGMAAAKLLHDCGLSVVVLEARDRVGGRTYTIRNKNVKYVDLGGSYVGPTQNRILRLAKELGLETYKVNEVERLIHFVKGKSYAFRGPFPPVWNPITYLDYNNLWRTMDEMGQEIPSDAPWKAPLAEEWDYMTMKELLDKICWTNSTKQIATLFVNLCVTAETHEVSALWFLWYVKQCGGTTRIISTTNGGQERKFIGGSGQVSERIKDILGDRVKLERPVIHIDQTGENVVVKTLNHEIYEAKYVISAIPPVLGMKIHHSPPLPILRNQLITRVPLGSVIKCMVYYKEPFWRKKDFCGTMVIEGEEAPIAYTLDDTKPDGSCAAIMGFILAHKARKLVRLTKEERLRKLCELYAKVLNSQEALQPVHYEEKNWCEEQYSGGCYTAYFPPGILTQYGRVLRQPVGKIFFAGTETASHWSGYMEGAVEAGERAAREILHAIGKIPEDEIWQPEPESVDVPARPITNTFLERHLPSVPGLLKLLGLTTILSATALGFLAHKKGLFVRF
Excerpt: 2.2.2.6 Inhibition Study on MAOs in vitro
Inhibition of rat monoamine oxidase A and B was studied by means of a spectrofluorimetric method as previously detailed.

[2] = Reducing activity of the stable radical DPPH; details: 100 μM compound, after 20 min
Outline: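 Compounds (100 μM) mixed with equal volume of 100 μM DPPH in absolute ethanol at room temperature; absorbance at 517 nm read after 20 and 60 min against ethanol control. Activity given as RA% (reducing activity); NDGA standard.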

[3] = Inhibition of linoleic acid lipid peroxidation (AAPH); details: 100 μM compound, 37°C
Outline: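 Sodium linoleate oxidation in 0.05 M phosphate buffer, pH 7.4, at 37°C, initiated by AAPH, with test compounds added from DMSO stock. Conjugated diene hydroperoxide formation followed at 234 nm, with a DMSO-only control and Trolox as standard.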

SMILES	MAO-B (%) @ 10μΜ [1]	RA% @ 100μΜ (reducing activity, DPPH) [2]	LP % @ 100μΜ (inhibition of lipid peroxidation) [3]	IC50 ([1]; read-out: MAO-B IC50 μΜ) [µM]
O=c1cc(OCC2CC(Cn3cnc4c(N5CCCCC5)ncnc43)=NO2)c2ccccc2o1 (stereo not drawn) [4f]	no	3%	62%	
Cc1cc(=O)oc2ccc(OCC3=NOC(Cn4cnc5c(Cl)ncnc54)C3)cc12 (stereo not drawn) [11b]		5%	no	9.5
O=c1cc(OCc2cc(Cn3cnc4c(N5CCOCC5)ncnc43)no2)c2ccccc2o1 [13i]	9%	no	74%	
